Measured values taken from ChEMBL document CHEMBL5338738, “Discovery of Novel Sesquiterpene Lactone Derivatives as Potent PKM2 Activators for the Treatment of Ulcerative Colitis” (J Med Chem, 2023).
Calls of active or inactive are those of the source. The rule behind the calls is not given here.

Experiments:
Pyruvate kinase PKM [1] = molecular target: T1, Pyruvate kinase PKM (Homo sapiens, UniProt P14618); experiment: Activation of PKM2 (unknown origin) incubated for 30 mins
Target sequence in this assay (P14618 whole entry): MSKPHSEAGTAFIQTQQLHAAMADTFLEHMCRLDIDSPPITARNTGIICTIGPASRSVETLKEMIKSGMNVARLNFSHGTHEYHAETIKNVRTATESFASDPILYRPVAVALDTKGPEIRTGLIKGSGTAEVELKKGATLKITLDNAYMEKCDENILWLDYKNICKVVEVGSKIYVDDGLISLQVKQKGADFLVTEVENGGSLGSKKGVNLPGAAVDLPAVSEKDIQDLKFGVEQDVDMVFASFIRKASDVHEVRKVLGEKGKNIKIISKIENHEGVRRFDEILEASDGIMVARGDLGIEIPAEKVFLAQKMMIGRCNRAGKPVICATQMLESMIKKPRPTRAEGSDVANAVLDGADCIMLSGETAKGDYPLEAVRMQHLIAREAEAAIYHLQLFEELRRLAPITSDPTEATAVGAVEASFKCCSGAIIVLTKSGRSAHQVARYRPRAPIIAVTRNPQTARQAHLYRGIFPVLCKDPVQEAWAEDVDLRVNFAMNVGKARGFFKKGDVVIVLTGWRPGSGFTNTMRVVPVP

Pyruvate kinase PKM [2] = molecular target: T1, Pyruvate kinase PKM; experiment: Covalent binding affinity to recombinant human PKM2 at Cys424 residue at 20 uM incubated for 120 mins by LC-MS/MS analysis; details: filed as activator
Target sequence in this assay (P14618 2-531 limits assumed): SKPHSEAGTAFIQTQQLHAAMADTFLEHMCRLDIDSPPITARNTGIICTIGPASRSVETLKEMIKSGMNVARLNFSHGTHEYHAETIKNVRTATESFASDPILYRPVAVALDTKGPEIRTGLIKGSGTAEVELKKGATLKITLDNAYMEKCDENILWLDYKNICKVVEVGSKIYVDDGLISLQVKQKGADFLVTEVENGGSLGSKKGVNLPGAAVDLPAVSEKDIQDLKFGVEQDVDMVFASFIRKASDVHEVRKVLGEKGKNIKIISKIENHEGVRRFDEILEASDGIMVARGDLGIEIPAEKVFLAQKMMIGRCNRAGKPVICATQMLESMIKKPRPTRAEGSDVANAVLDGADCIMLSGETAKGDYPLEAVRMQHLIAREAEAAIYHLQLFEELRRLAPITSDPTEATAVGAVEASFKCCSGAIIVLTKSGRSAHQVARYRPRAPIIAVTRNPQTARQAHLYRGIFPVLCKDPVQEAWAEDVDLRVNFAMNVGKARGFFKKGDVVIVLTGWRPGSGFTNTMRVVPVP

CD4+ve Th [3] = experiment: Inhibition of Th17 cells differentiation in anti-CD3/CD28 stimulated C57BL/6 mouse mesenteric lymph node CD4+ve Th cells assessed as downregulation of RORC mRNA expression level at 0.1 to 3 uM incubated for 96 hrs in presence of recombinant human TGF-beta, recombinant mouse IL-6 and recombinant mouse IL-23 by qPCR analysis; format: functional, cell-based; details: dose 0.1-3 µM
CD4+ve Th [4] = experiment: Inhibition of Th17 cells differentiation in anti-CD3/CD28 stimulated C57BL/6 mouse mesenteric lymph node CD4+ve Th cells assessed as downregulation of IL22 mRNA expression level at 0.1 to 3 uM incubated for 96 hrs in presence of recombinant human TGF-beta, recombinant mouse IL-6 and recombinant mouse IL-23 by qPCR analysis; format: functional, cell-based; details: dose 0.1-3 µM
CD4+ve Th [5] = experiment: Cytotoxicity against C57BL/6 mouse mesenteric lymph node CD4+ve Th cells assessed as reduction in cell viability at 0.3 to 3 uM incubated for 96 hrs by MTT assay; format: toxicity, cell-based; details: dose 0.3-3 µM
CD4+ve Th [6] = experiment: Cytotoxicity against C57BL/6 mouse mesenteric lymph node CD4+ve Th cells assessed as reduction in cell proliferation at 0.3 to 3 uM incubated for 96 hrs by CCK-8 assay; format: toxicity, cell-based; details: dose 0.3-3 µM
CD4+ve Th [7] = experiment: Effect on apoptosis in C57BL/6 mouse mesenteric lymph node CD4+ve Th cells assessed as apoptotis rate at 0.3 to 3 uM incubated for 96 hrs by Annexin-V/PI staining based flow cytometry; format: functional, cell-based; details: dose 0.3-3 µM
CD4+ve Th [8] = experiment: Inhibition of Th17 cells differentiation in anti-CD3/CD28 stimulated C57BL/6 mouse mesenteric lymph node CD4+ve Th cells assessed as decrease in PKM2 expression in nucleus at 0.1 to 3 uM incubated for 96 hrs in presence of recombinant human TGF-beta, recombinant mouse IL-6 and recombinant mouse IL-23 by Western blot analysis; format: functional, cell-based; details: dose 0.1-3 µM
CD4+ve Th [9] = experiment: Inhibition of aerobic glycolysis in anti-CD3/CD28 stimulated C57BL/6 mouse mesenteric lymph node CD4+ve Th cells assessed as reduction in glucose utilization by measuring glucose level at 0.3 to 3 uM incubated for 96 hrs in presence of recombinant human TGF-beta, recombinant mouse IL-6 and recombinant mouse IL-23 by colorimetric analysis; format: functional, cell-based; details: dose 0.3-3 µM
CD4+ve Th [10] = experiment: Inhibition of aerobic glycolysis in anti-CD3/CD28 stimulated C57BL/6 mouse mesenteric lymph node CD4+ve Th cells assessed as reduction in glucose uptake level at 0.3 to 3 uM incubated for 96 hrs in presence of recombinant human TGF-beta, recombinant mouse IL-6 and recombinant mouse IL-23 by NBDG staining based immunofluorescence analysis; format: functional, cell-based; details: dose 0.3-3 µM
CD4+ve Th [11] = experiment: Inhibition of aerobic glycolysis in anti-CD3/CD28 stimulated C57BL/6 mouse mesenteric lymph node CD4+ve Th cells assessed as decrease in ATP production at 0.3 to 3 uM incubated for 96 hrs in presence of recombinant human TGF-beta, recombinant mouse IL-6 and recombinant mouse IL-23 by colorimetric assay; format: functional, cell-based; details: dose 0.3-3 µM
CD4+ve Th [12] = experiment: Inhibition of aerobic glycolysis in anti-CD3/CD28 stimulated C57BL/6 mouse mesenteric lymph node CD4+ve Th cells assessed as downregulation of Hk2 mRNA expression level at 0.3 to 3 uM incubated for 96 hrs in presence of recombinant human TGF-beta, recombinant mouse IL-6 and recombinant mouse IL-23 by qPCR analysis; format: functional, cell-based; details: dose 0.3-3 µM
Mus musculus [13] = experiment: Anti-colitis activity against DSS-induced ulcerative colitis C57BL/6 mouse model assessed as reduction in disease activity index (DAI) score at 12.5 to 25 mg/kg, po for 10 days consecutively; format: functional, organism-based; details: dose 12.5-25 mg/kg, time 10.0 day
Mus musculus [14] = experiment: Anti-colitis activity against DSS-induced ulcerative colitis C57BL/6 mouse model assessed as reduction in spleen index at 12.5 to 25 mg/kg, po for 10 days consecutively; format: functional, organism-based; details: dose 12.5-25 mg/kg, time 10.0 day
Mus musculus [15] = experiment: Anti-colitis activity against DSS-induced ulcerative colitis C57BL/6 mouse model assessed as decrease in IL-1beta mRNA expression level in colon at 12.5 to 25 mg/kg, po for 10 days consecutively by qPCR analysis; format: functional, organism-based; details: dose 12.5-25 mg/kg, time 10.0 day
Mus musculus [16] = experiment: Anti-colitis activity against DSS-induced ulcerative colitis C57BL/6 mouse model assessed as decrease in IL-6 mRNA expression level in colon at 12.5 to 25 mg/kg, po for 10 days consecutively by qPCR analysis; format: functional, organism-based; details: dose 12.5-25 mg/kg, time 10.0 day
[17] = Toxicity in C57BL/6 mouse assessed as histological change in kidney at 6.25 to 25 mg/kg, po for 10 days consecutively by H and E staining based microscopy; format: organism-based; details: in vivo, 240 h, dose 6.25-25 mg/kg, time 10 day
Mus musculus [18] = experiment: Anti-colitis activity against TNBS-induced ulcerative colitis BALB/c mouse model assessed as increase in survival rate at 12.5 to 25 mg/kg, po for consecutive 7 days; format: functional, organism-based; details: dose 12.5-25 mg/kg, time 7.0 day
Mus musculus [19] = experiment: Anti-colitis activity against TNBS-induced ulcerative colitis BALB/c mouse model assessed as increase in colon length at 12.5 to 25 mg/kg, po for consecutive 7 days; format: functional, organism-based; details: dose 12.5-25 mg/kg, time 7.0 day
Mus musculus [20] = experiment: Anti-colitis activity against TNBS-induced ulcerative colitis BALB/c mouse model assessed as decrease in infiltration of inflammatory cells into lamina propria in colon at 12.5 to 25 mg/kg, po for consecutive 7 days by H and E staining based microscopy; format: functional, organism-based; details: dose 12.5-25 mg/kg, time 7.0 day
Mus musculus [21] = experiment: Anti-colitis activity against DSS-induced ulcerative colitis C57BL/6 mouse model assessed as downregulation of IL17a mRNA expression level in spleen at 12.5 to 25 mg/kg, po for 10 days consecutively by qPCR assay; format: functional, organism-based; details: dose 12.5-25 mg/kg, time 10.0 day
Mus musculus [22] = experiment: Anti-colitis activity against DSS-induced ulcerative colitis C57BL/6 mouse model assessed as downregulation of RORC mRNA expression level in mesenteric lymph nodes at 12.5 to 25 mg/kg, po for 10 days consecutively by qPCR assay; format: functional, organism-based; details: dose 12.5-25 mg/kg, time 10.0 day
Mus musculus [23] = experiment: Anti-colitis activity against DSS-induced ulcerative colitis C57BL/6 mouse model assessed as downregulation of Foxp3 mRNA expression level in mesenteric lymph nodes at 6.25 to 25 mg/kg, po for 10 days consecutively by qPCR assay; format: functional, organism-based; details: dose 6.25-25 mg/kg, time 10.0 day
Mus musculus [24] = experiment: Anti-colitis activity against DSS-induced ulcerative colitis C57BL/6 mouse model assessed as decrease in percentage of Th17 cells in colonic lamina propria at 12.5 to 25 mg/kg, po for 10 days consecutively by flow cytometry; format: functional, organism-based; details: dose 12.5-25 mg/kg, time 10.0 day
[25] = AUCt in Sprague-Dawley rat at 75 mg/kg,po and measured upto 24 hrs by LC-MS/MS analysis; format: ADME, organism-based; design: time < 24 hrs, dose 75 mg/kg, route po; details: in vivo
[26] = Tmax in Sprague-Dawley rat at 8 mg/kg,iv and measured upto 24 hrs by LC-MS/MS analysis; format: ADME, organism-based; details: in vivo
[27] = AUCt in Sprague-Dawley rat at 8 mg/kg,iv and measured upto 24 hrs by LC-MS/MS analysis; format: ADME, organism-based; design: time < 24 hrs, dose 8 mg/kg, route iv; details: in vivo

Structure (SMILES): C=C1C(=O)O[C@H]2[C@H]1CC[C@@]1(C)[C@@H](CC[C@@]3(C)O[C@@H]23)C1(F)F
- EC50 (Pyruvate kinase PKM [1]): 0.202 µM
- Activity (Pyruvate kinase PKM [2]): Active
- inhibition (CD4+ve Th [3]): Active
- inhibition (CD4+ve Th [4]): Active
- Activity (CD4+ve Th [5]): Non-Toxic
- Activity (CD4+ve Th [6]): Non-Toxic
- Activity (CD4+ve Th [7]): inactive
- inhibition (CD4+ve Th [8]): Active
- inhibition (CD4+ve Th [9]): Active
- inhibition (CD4+ve Th [10]): Active
- inhibition (CD4+ve Th [11]): Active
- inhibition (CD4+ve Th [12]): Active
- Activity (Mus musculus [13]): Active
- Activity (Mus musculus [14]): Active
- Activity (Mus musculus [15]): Active
- Activity (Mus musculus [16]): Active
- Activity [17]: Non-Toxic
- Activity (Mus musculus [18]): Active
- Activity (Mus musculus [19]): Active
- Activity (Mus musculus [20]): Active
- Activity (Mus musculus [21]): Active
- Activity (Mus musculus [22]): Active
- Activity (Mus musculus [23]): inactive
- Activity (Mus musculus [24]): Active
- AUC(0-t) at 24 h [25]: 0.322 µg·h/mL
- Tmax [26]: 4.98 min
- AUC(0-t) at 24 h [27]: 1.23 µg·h/mL
